Laboratory results as given in US20070049564A1 (Wyeth, priority 2005, published 2007).
Values after ≈ are worked out from the molar mass of the structure shown. Read-outs that look alike come from different tables or passages of the source.

Tests used:
[1] = test system: S. pyogenes GC 4563; experiment: MIC, broth microdilution; details: Streptococcus pyogenes
[2] = test system: E. faecium GC 2243; experiment: MIC, broth microdilution; details: Enterococcus faecium
[3] = test system: E. coli GC 2271; experiment: MIC, broth microdilution; details: Escherichia coli
[4] = test system: E. coli GC 3226; experiment: MIC, broth microdilution; details: Escherichia coli
[5] = test system: E. faecium GC 4556; experiment: MIC, broth microdilution; details: Enterococcus faecium
[6] = test system: E. coli GC 2270; experiment: MIC, broth microdilution; details: Escherichia coli
[7] = test system: E. coli GC 2232; experiment: MIC, broth microdilution; details: Escherichia coli
[8] = test system: E. coli GC 2236; experiment: MIC, broth microdilution; details: Escherichia coli
[9] = test system: S. aureus GC 6466; experiment: MIC, broth microdilution; details: Staphylococcus aureus
[10] = test system: E. coli; experiment: Range of MIC for E. coli strains; details: Escherichia coli
[11] = test system: S. aureus GC 6469; experiment: MIC, broth microdilution; details: Staphylococcus aureus
[12] = test system: E. coli GC 2234; experiment: MIC, broth microdilution; details: Escherichia coli
[13] = test system: E. coli GC 2231; experiment: MIC, broth microdilution; details: Escherichia coli
[14] = test system: S. aureus GC 6335; experiment: MIC, broth microdilution; details: Staphylococcus aureus
[15] = test system: E. faecalis GC 2265; experiment: MIC, broth microdilution; details: Enterococcus faecalis
[16] = test system: S. aureus GC 2216; experiment: MIC, broth microdilution; details: Staphylococcus aureus
[17] = test system: P. aeruginosa GC 2214; experiment: MIC, broth microdilution; details: Pseudomonas aeruginosa
[18] = test system: E. coli GC 2233; experiment: MIC, broth microdilution; details: Escherichia coli
[19] = test system: E. coli GC 2203; experiment: MIC, broth microdilution; details: Escherichia coli
[20] = test system: Staph.; experiment: Range of MIC for Staph. strains, including MRSA; details: Staphylococcus aureus

MIC ([1]; GC4563, read-out: MINIMAL INHIBITORY CONCENTRATION MIC, Human Serum): 0.25 µg/mL (≈ 0.32 µM)
MIC ([1]; GC4563, read-out: MINIMAL INHIBITORY CONCENTRATION MIC, Mouse Serum): 0.12 µg/mL (≈ 0.153 µM)
MIC ([1]; GC4563, read-out: MINIMAL INHIBITORY CONCENTRATION MIC, Water): 0.25 µg/mL (≈ 0.32 µM)
MIC ([2]; GC2243, read-out: MINIMAL INHIBITORY CONCENTRATION MIC, Human Serum): 1 µg/mL (≈ 1.28 µM)
MIC ([2]; GC2243, read-out: MINIMAL INHIBITORY CONCENTRATION MIC, Mouse Serum): 0.25 µg/mL (≈ 0.32 µM)
MIC ([2]; GC2243, read-out: MINIMAL INHIBITORY CONCENTRATION MIC, Water): 1 µg/mL (≈ 1.28 µM)
MIC ([3]; GC2271, read-out: MINIMAL INHIBITORY CONCENTRATION MIC, Human Serum): 4 µg/mL (≈ 5.12 µM)
MIC ([3]; GC2271, read-out: MINIMAL INHIBITORY CONCENTRATION MIC, Mouse Serum): 0.5 µg/mL (≈ 0.64 µM)
MIC ([3]; GC2271, read-out: MINIMAL INHIBITORY CONCENTRATION MIC, Water): 4 µg/mL (≈ 5.12 µM)
MIC ([4]; GC3226, read-out: MINIMAL INHIBITORY CONCENTRATION MIC, Human Serum): 16 µg/mL (≈ 20.5 µM)
MIC ([4]; GC3226, read-out: MINIMAL INHIBITORY CONCENTRATION MIC, Mouse Serum): 1 µg/mL (≈ 1.28 µM)
MIC ([4]; GC3226, read-out: MINIMAL INHIBITORY CONCENTRATION MIC, Water): 16 µg/mL (≈ 20.5 µM)
MIC ([5]; GC4556, read-out: MINIMAL INHIBITORY CONCENTRATION MIC, Human Serum): 2 µg/mL (≈ 2.56 µM)
MIC ([5]; GC4556, read-out: MINIMAL INHIBITORY CONCENTRATION MIC, Mouse Serum): 0.5 µg/mL (≈ 0.64 µM)
MIC ([5]; GC4556, read-out: MINIMAL INHIBITORY CONCENTRATION MIC, Water): 4 µg/mL (≈ 5.12 µM)
MIC ([6]; GC2270, read-out: MINIMAL INHIBITORY CONCENTRATION MIC, Human Serum): 4 µg/mL (≈ 5.12 µM)
MIC ([6]; GC2270, read-out: MINIMAL INHIBITORY CONCENTRATION MIC, Mouse Serum): 0.5 µg/mL (≈ 0.64 µM)
MIC ([6]; GC2270, read-out: MINIMAL INHIBITORY CONCENTRATION MIC, Water): 4 µg/mL (≈ 5.12 µM)
MIC ([7]; GC2232, read-out: MINIMAL INHIBITORY CONCENTRATION MIC, Human Serum): 4 µg/mL (≈ 5.12 µM)
MIC ([7]; GC2232, read-out: MINIMAL INHIBITORY CONCENTRATION MIC, Mouse Serum): 0.5 µg/mL (≈ 0.64 µM)
MIC ([7]; GC2232, read-out: MINIMAL INHIBITORY CONCENTRATION MIC, Water): 8 µg/mL (≈ 10.2 µM)
MIC ([8]; GC2236, read-out: MINIMAL INHIBITORY CONCENTRATION MIC, Human Serum): 8 µg/mL (≈ 10.2 µM)
MIC ([8]; GC2236, read-out: MINIMAL INHIBITORY CONCENTRATION MIC, Mouse Serum): 1 µg/mL (≈ 1.28 µM)
MIC ([8]; GC2236, read-out: MINIMAL INHIBITORY CONCENTRATION MIC, Water): 8 µg/mL (≈ 10.2 µM)
MIC ([9]; GC6466, read-out: MINIMAL INHIBITORY CONCENTRATION MIC, Human Serum): 1 µg/mL (≈ 1.28 µM)
MIC ([9]; GC6466, read-out: MINIMAL INHIBITORY CONCENTRATION MIC, Mouse Serum): 0.5 µg/mL (≈ 0.64 µM)
MIC ([9]; GC6466, read-out: MINIMAL INHIBITORY CONCENTRATION MIC, Water): 2 µg/mL (≈ 2.56 µM)
MIC ([10]; 20 h, read-out: Range of MIC, E. coli (Mouse Serum)): 0.5 to 1 µg/mL (≈ 0.64 to 1.28 µM)
MIC ([10]; read-out: Minimum inhibitory concentration (MIC), E. coli (Human Serum)): 4 to 16 µg/mL (≈ 5.12 to 20.5 µM)
MIC ([10]; read-out: Minimum inhibitory concentration (MIC), E. coli (water)): 4 to 16 µg/mL (≈ 5.12 to 20.5 µM)
MIC ([10]; read-out: Range of MIC, E. coli (Water)): 4 to 16 µg/mL (≈ 5.12 to 20.5 µM)
MIC ([11]; GC6469, read-out: MINIMAL INHIBITORY CONCENTRATION MIC, Human Serum): 2 µg/mL (≈ 2.56 µM)
MIC ([11]; GC6469, read-out: MINIMAL INHIBITORY CONCENTRATION MIC, Mouse Serum): 0.5 µg/mL (≈ 0.64 µM)
MIC ([11]; GC6469, read-out: MINIMAL INHIBITORY CONCENTRATION MIC, Water): 4 µg/mL (≈ 5.12 µM)
MIC ([12]; GC2234, read-out: MINIMAL INHIBITORY CONCENTRATION MIC, Human Serum): 4 µg/mL (≈ 5.12 µM)
MIC ([12]; GC2234, read-out: MINIMAL INHIBITORY CONCENTRATION MIC, Mouse Serum): 0.5 µg/mL (≈ 0.64 µM)
MIC ([12]; GC2234, read-out: MINIMAL INHIBITORY CONCENTRATION MIC, Water): 8 µg/mL (≈ 10.2 µM)
MIC ([13]; GC2231, read-out: MINIMAL INHIBITORY CONCENTRATION MIC, Human Serum): 8 µg/mL (≈ 10.2 µM)
MIC ([13]; GC2231, read-out: MINIMAL INHIBITORY CONCENTRATION MIC, Mouse Serum): 1 µg/mL (≈ 1.28 µM)
MIC ([13]; GC2231, read-out: MINIMAL INHIBITORY CONCENTRATION MIC, Water): 16 µg/mL (≈ 20.5 µM)
MIC ([14]; GC6335, read-out: MINIMAL INHIBITORY CONCENTRATION MIC, Human Serum): 2 µg/mL (≈ 2.56 µM)
MIC ([14]; GC6335, read-out: MINIMAL INHIBITORY CONCENTRATION MIC, Mouse Serum): 1 µg/mL (≈ 1.28 µM)
MIC ([14]; GC6335, read-out: MINIMAL INHIBITORY CONCENTRATION MIC, Water): 4 µg/mL (≈ 5.12 µM)
MIC ([15]; GC2265, read-out: MINIMAL INHIBITORY CONCENTRATION MIC, Human Serum): 4 µg/mL (≈ 5.12 µM)
MIC ([15]; GC2265, read-out: MINIMAL INHIBITORY CONCENTRATION MIC, Mouse Serum): 1 µg/mL (≈ 1.28 µM)
MIC ([15]; GC2265, read-out: MINIMAL INHIBITORY CONCENTRATION MIC, Water): 4 µg/mL (≈ 5.12 µM)
MIC ([16]; GC2216, read-out: MINIMAL INHIBITORY CONCENTRATION MIC, Human Serum): 1 µg/mL (≈ 1.28 µM)
MIC ([16]; GC2216, read-out: MINIMAL INHIBITORY CONCENTRATION MIC, Mouse Serum): 0.5 µg/mL (≈ 0.64 µM)
MIC ([16]; GC2216, read-out: MINIMAL INHIBITORY CONCENTRATION MIC, Water): 4 µg/mL (≈ 5.12 µM)
MIC ([17]; GC2214, read-out: MINIMAL INHIBITORY CONCENTRATION MIC, Human Serum): > 64 µg/mL
MIC ([17]; GC2214, read-out: MINIMAL INHIBITORY CONCENTRATION MIC, Mouse Serum): 64 µg/mL (≈ 81.9 µM)
MIC ([17]; GC2214, read-out: MINIMAL INHIBITORY CONCENTRATION MIC, Water): > 64 µg/mL
MIC ([18]; GC2233, read-out: MINIMAL INHIBITORY CONCENTRATION MIC, Human Serum): 8 µg/mL (≈ 10.2 µM)
MIC ([18]; GC2233, read-out: MINIMAL INHIBITORY CONCENTRATION MIC, Mouse Serum): 0.5 µg/mL (≈ 0.64 µM)
MIC ([18]; GC2233, read-out: MINIMAL INHIBITORY CONCENTRATION MIC, Water): 8 µg/mL (≈ 10.2 µM)
MIC ([19]; GC2203, read-out: MINIMAL INHIBITORY CONCENTRATION MIC, Human Serum): 8 µg/mL (≈ 10.2 µM)
MIC ([19]; GC2203, read-out: MINIMAL INHIBITORY CONCENTRATION MIC, Mouse Serum): 0.5 µg/mL (≈ 0.64 µM)
MIC ([19]; GC2203, read-out: MINIMAL INHIBITORY CONCENTRATION MIC, Water): 8 µg/mL (≈ 10.2 µM)
MIC ([20]; MRSA, read-out: Range of MIC, Staph (Mouse Serum)): 0.5 to 1 µg/mL (≈ 0.64 to 1.28 µM)
MIC ([20]; MRSA, read-out: Range of MIC, Staph (Water)): 2 to 4 µg/mL (≈ 2.56 to 5.12 µM)
MIC ([20]; read-out: Minimum inhibitory concentration (MIC), Staph (Human Serum)): 0.5 to 4 µg/mL (≈ 0.64 to 5.12 µM)
MIC ([20]; read-out: Minimum inhibitory concentration (MIC), Staph (Water)): 2 to 4 µg/mL (≈ 2.56 to 5.12 µM)
SMILES: CN(C)c1cc(NC(=O)CN(C(=O)OCOC(=O)c2ccc(F)cc2)C(C)(C)C)c(O)c2c1C[C@H]1C[C@H]3[C@H](N(C)C)C(O)=C(C(N)=O)C(=O)[C@@]3(O)C(O)=C1C2=O [Example 52, ({[(2-{[(5aR,6aS,7S,10aS)-9-(aminocarbonyl)-4,7-bis(dimethylamino)-1,8,10a,11-tetrahydroxy-10,12-dioxo-5,5a,6,6a,7,10,10a,12-octahydrotetracen-2-yl]amino}-2-oxoethyl)(tert-butyl)amino]carbonyl}oxy)methyl 4-fluorobenzoate]
